Where only a bound is given, the exact number is not on record here.

Assay [1] has as its system L6. As to the kind of experiment: Cytotoxicity against rat L6 cells after 72 hrs by Alamar blue assay. In kind it is cell-based. The conditions noted are these: L6, 72 h. In general terms: Alamar Blue is a resazurin reagent that responds to reducing activity.
The subject of assay [2] is Leishmania donovani. Kind of assay: Antileishmanial activity against Leishmania donovani MHOM-ET-67/L82. In kind it is functional, organism-based.
The test system of assay [3] is Trypanosoma cruzi. Kind of assay: Antitrypanosomal activity against Trypanosoma cruzi Tulahuen C4. In kind it is functional, organism-based.
Assay [4] deals with Trypanosoma brucei rhodesiense. Kind of assay: Antitrypanosomal activity against Trypanosoma brucei rhodesiense STIB 900 after 72 hrs by Alamar blue assay. In kind it is functional, organism-based. Conditions: STIB 900, 72 h.
Assay [5] deals with Plasmodium falciparum. As to the kind of experiment: Antiplasmodial activity against chloroquine-resistant Plasmodium falciparum K1 infected in human RBC after 48 hrs by [3H]-hypoxanthine incorporation assay. In kind it is functional, organism-based.

In the case of `CC[C@H](C)[C@H]1NC(=O)[C@H]2N=C(O[C@@H]2C)[C@H](C(C)C)NC(=O)[C@H]([C@@H](C)O)NC(=O)[C@@H](C)NC(=O)c2csc1n2`, the concentration for half-maximal inhibition (IC50) (commonly the concentration needed to halve the response being measured) in assay [1] was more than 150 µM; in assay [2], 28 µM; in assay [3] it was more than 150 µM; in assay [4] it was 51 µM; in assay [5], 8.2 µM.
For `CC[C@H](C)[C@H]1NC(=O)[C@H]2N=C(O[C@@H]2C)[C@H](C(C)C)NC(=O)[C@H]2N=C(O[C@@H]2C)[C@@H](C)NC(=O)c2csc1n2`, the 50% inhibitory concentration (IC50) in assay [1] is more than 150 µM; in assay [2], more than 150 µM; in assay [3], more than 150 µM; in assay [4], 59 µM; in assay [5] it was 9 µM.

(Values after ChEMBL document CHEMBL3120140, “Balgacyclamides, antiplasmodial heterocyclic peptides from Microcystis aeruguinosa EAWAG 251” (J Nat Prod, 2014).)
